# ChEMBL document CHEMBL1811844, “Design, synthesis, and biological evaluation of triazolo-pyrimidine derivatives as novel inhibitors of hepatitis B virus surface antigen (HBsAg) secretion” (J Med Chem, 2011)
# Test: Cytotoxicity against human HepG2(2.2.15) cells by MTT assay
# Assay type: cell-based
structure (smiles),measurement,value
Cc1ccc(C2=CC(c3c(F)cccc3Cl)n3ncnc3N2)cc1C (stereo unspecified),CC50,> 50 µM
